These results are taken from patent US11697650B2, “Compounds having tetrahydroindolizine-1-carboxamide as BCL-2 inhibitors” (Eil Therapeutics, Inc., priority 2021, dated 2023).

One series relates to RS4-11 cells. Briefly: Cell viability assay (CellTiter-Glo), RS4-11. It is filed as cell-based. Particulars: Homo sapiens, 72 h, 3 days, read-out: RS4-11 (CC50 code). In a few lines:
(§1)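 HEK293 cells in DMEM at 2000/well, plated a day before dosing; RS4-11 and MOLT-4 in RPMI-1640 at 4000/well. Compounds diluted from 200× DMSO stocks through medium into wells, then incubated 3 days at 37 °C. Viability read by CellTiter-Glo luminescence.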
(In general: In ATP-based viability assays light output follows the ATP content of the culture.)

A further series deals with BCL-2 (Homo sapiens (Human), UniProt P10415). In words: BCL-2 TR-FRET Assay (primary PPI inhibition). Particulars: 60 min incubation; read-out: BCL2 (IC50 code, BCL-2 TR-FRET). The class given is binding. In a few lines: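 Mixture of 3 ng BCL-2, anti-His Tb donor, dye-labeled acceptor and BCL-2 peptide ligand, incubated 60 min with test compound. TR-FRET read at 340 nm excitation, 620/665 nm emission, 60 µs delay, 500 µs integration.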
In general terms: Time-resolved FRET reads energy transfer from a long-lived donor to a nearby acceptor.

For a further series, the target named is MCL-1 (Homo sapiens (Human), UniProt Q07820). In words: MCL-1 TR-FRET Assay (primary PPI inhibition). Particulars: 60 min incubation; read-out: MCL1 IC50. The class given is binding. On the procedure: MCL-1 TR-FRET Assay (BPS Bioscience, #79506)
The following assay concentrations and times were used: 10 ng MCL-1, 5 μl of 1:200 anti-His Tb-labeled donor, 5 μl of 1:200 Dye-labeled acceptor, 5 μl of 1:10 MCL-1 Peptide Ligand, and 2 μl of test compound, with 60 min incubation time. The results of the assay were read using a Clariostar (BMG Labtech) plate reader with the following parameters: TR FRET, 340ex/620 and 665em; 60 μsec Delay; and 500 μsec integration.

Series [1] can be described thus: Cell viability assay (CellTiter-Glo), HEK293. It is filed as cell-based. Particulars: human, HEK293 cells, read-out: HEK293 (CC50 code). In a few lines:
as §1

The next series has as its system MOLT-4 cells. Briefly: Cell viability assay (CellTiter-Glo), MOLT-4. Particulars: Homo sapiens, 72 h, 3 days, read-out: MOLT-4 (CC50 code). It is filed as cell-based. Put shortly:
as §1

In series [2] the test system is caspase-3 and -7 activities in RS4-11 cells. In words: Caspase-3/7 activation (Caspase-Glo 3/7) in RS4-11 cells. The class given is cell-based. Particulars: Homo sapiens, 3.5 h incubation, read-out: Cas-3/7 (EC50 code). Put shortly: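 RS4-11 cells exposed to varying compound concentrations for 3.5 h at 37 °C, 5% CO2, then 30 min at r.t. Caspase-Glo 3/7 reagent (luminogenic DEVD substrate) added, 30 min at r.t., luminescence read.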

Another series deals with BCL-XL (Homo sapiens (Human), UniProt Q07817). In words: BCL-XL TR-FRET Assay (primary PPI inhibition). The class given is binding. Particulars: 60 min incubation; read-out: BCLxL (IC50 code, BCL-XL TR-FRET). In a few lines:
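TR-FRET displacement of a dye-labelled BCL-XL peptide ligand from His-tagged BCL-XL (10.5 ng) detected with a Tb-labelled anti-His donor. Incubation ran 60 min with test compound. Readout used 340 nm excitation and 620/665 nm emission with a 60 µs delay.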

SMILES strings stand for the structures. Where only a bound is given, the exact number is not on record here.

BCL-2, sequence (P10415 whole entry): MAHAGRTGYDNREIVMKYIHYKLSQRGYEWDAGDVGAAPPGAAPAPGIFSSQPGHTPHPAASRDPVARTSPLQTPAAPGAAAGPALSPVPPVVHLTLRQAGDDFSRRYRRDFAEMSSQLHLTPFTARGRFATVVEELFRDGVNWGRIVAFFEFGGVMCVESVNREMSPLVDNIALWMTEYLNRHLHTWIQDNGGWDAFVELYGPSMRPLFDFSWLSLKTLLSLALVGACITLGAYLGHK
MCL-1, sequence (Q07820 whole entry): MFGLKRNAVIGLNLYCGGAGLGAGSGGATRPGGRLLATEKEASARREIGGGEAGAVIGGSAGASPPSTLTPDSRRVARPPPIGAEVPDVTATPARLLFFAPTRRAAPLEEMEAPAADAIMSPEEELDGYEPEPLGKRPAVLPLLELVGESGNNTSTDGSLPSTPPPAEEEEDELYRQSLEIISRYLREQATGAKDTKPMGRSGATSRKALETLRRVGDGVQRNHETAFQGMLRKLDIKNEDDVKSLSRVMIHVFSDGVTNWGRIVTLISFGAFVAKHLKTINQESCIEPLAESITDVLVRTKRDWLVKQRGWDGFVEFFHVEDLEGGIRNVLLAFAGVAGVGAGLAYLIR
BCL-XL, sequence (Q07817 whole entry): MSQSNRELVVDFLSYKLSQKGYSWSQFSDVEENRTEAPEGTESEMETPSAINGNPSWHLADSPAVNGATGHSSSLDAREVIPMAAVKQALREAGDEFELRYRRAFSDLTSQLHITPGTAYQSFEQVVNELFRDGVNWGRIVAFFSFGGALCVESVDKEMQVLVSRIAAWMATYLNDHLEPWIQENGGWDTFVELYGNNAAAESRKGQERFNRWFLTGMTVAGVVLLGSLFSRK

With `CN(C)CCNC(=O)c1ccc(CN(C(=O)c2cc(-c3cc4c(cc3C(=O)N3Cc5ccccc5C[C@H]3CN3CCOCC3)OCO4)n3c2CCCC3)c2ccc(O)cc2)cc1` [Compound 8, N-(4-{[2-(dimethylamino)ethyl]carbamoyl}benzyl)-N-(4-hydroxyphenyl)-3-(6-{[(3S)-3-(morpholin-4-ylmethyl)-3,4-dihydroisoquinolin-2(1H)-yl]carbonyl}-1,3-benzodioxol-5-yl)-5,6,7,8-tetrahydroindolizine-1-carboxamide], the CC50 (usually the concentration that lowers cell viability or growth by half) in the series with RS4-11 cells is at most 100 nM; with MOLT-4 cells, over 10000 nM. The figures for the IC50 at BCL-2, on MCL-1 and at BCL-XL were at most 5 nM, over 100000 nM and at most 2000 nM, respectively. Further, the CC50 at 3 days in series [1] was over 25000 nM. In addition, in series [2], the EC50 was at most 100 nM.

On to `CN1CCN(C(=O)c2ccc(CN(C(=O)c3cc(-c4cc5c(cc4C(=O)N4Cc6ccccc6C[C@H]4CN4CCOCC4)OCO5)n4c3CCCC4)c3ccc(O)cc3)cc2)CC1` [Compound 12, N-(4-hydroxyphenyl)-N-{4-[(4-methylpiperazin-1-yl)carbonyl]benzyl}-3-(6-{[(3S)-3-(morpholin-4-ylmethyl)-3,4-dihydroisoquinolin-2(1H)-yl]carbonyl}-1,3-benzodioxol-5-yl)-5,6,7,8-tetrahydroindolizine-1-carboxamide], for which the CC50 in the series on RS4-11 cells was at most 100 nM; in the series on MOLT-4 cells it was over 10000 nM. Also, the IC50 (in general, the midpoint of a concentration-inhibition curve) was 5 to 10 nM at BCL-2, over 100000 nM at MCL-1 and at most 2000 nM at BCL-XL. Further, in series [1], the CC50 at 3 days lay within 10000 to 25000 nM. Also, in series [2], the EC50 was at most 100 nM.

As for `NC(=O)c1ccc(CN(C(=O)c2cc(-c3cc4c(cc3C(=O)N3Cc5ccccc5C[C@H]3CN3CCOCC3)OCO4)n3c2CCCC3)c2ccc(O)cc2)cc1` [Compound 13, N-(4-carbamoylbenzyl)-N-(4-hydroxyphenyl)-3-(6-{[(3S)-3-(morpholin-4-ylmethyl)-3,4-dihydroisoquinolin-2(1H)-yl]carbonyl}-1,3-benzodioxol-5-yl)-5,6,7,8-tetrahydroindolizine-1-carboxamide], the 50% cytotoxic concentration (CC50) is at most 100 nM with RS4-11 cells and 2000 to 10000 nM with MOLT-4 cells. Also, the IC50 at BCL-2 is 5 to 10 nM; at MCL-1, over 100000 nM; at BCL-XL, at most 2000 nM. For the same compound, in series [1], the CC50 at 3 days lay within 10000 to 25000 nM. In series [2], the EC50 is at most 100 nM.
